According to PubChem BioAssay AID248 (DTP/NCI, 2004):
Values joined by “and” are separate entries in the source; they are usually repeats but may differ in a detail not shown here. Identical values can stand only once. Toxic doses and inconclusive results are not listed. Rule as the data show it: active = T/C of 150% or more; inactive = T/C below 125%.

System: L1210 leukemia ip in BDF1 mice, survival T/C
Assay: NCI In Vivo Anticancer Drug Screen. Data for tumor model L1210 Leukemia (intraperitoneal) in B6D2F1 (BDF1) mice
Conditions: endpoint: mean survival time, higher = longer survival
In short: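 Antitumor effect is assessed in tumor-bearing animals. Survival in the compound arm is compared with a vehicle-dosed control arm and expressed as their quotient.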

[1] = dose: 100.0 mg/kg/injection, schedule: Q01DX001 (ip), vehicle: saline
[2] = dose: 100.0 mg/kg/injection, schedule: Q04DX003 (ip), vehicle: saline
[3] = dose: 200.0 mg/kg/injection, schedule: Q01DX001 (ip), vehicle: saline
[4] = dose: 200.0 mg/kg/injection, schedule: Q01DX009 (ip), vehicle: saline
[5] = dose: 200.0 mg/kg/injection, schedule: Q04DX003 (ip), vehicle: saline
[6] = dose: 400.0 mg/kg/injection, schedule: Q01DX001 (ip), vehicle: saline
[7] = dose: 400.0 mg/kg/injection, schedule: Q01DX009 (ip), vehicle: saline
[8] = dose: 400.0 mg/kg/injection, schedule: Q04DX003 (ip), vehicle: saline
[9] = dose: 100.0 mg/kg/injection, schedule: Q01DX009 (ip), vehicle: Klucel (hydroxypropylcellulose) (HPC)
[10] = dose: 100.0 mg/kg/injection, schedule: Q04DX003 (ip), vehicle: Klucel (hydroxypropylcellulose) (HPC)
[11] = dose: 200.0 mg/kg/injection, schedule: Q01DX009 (ip), vehicle: Klucel (hydroxypropylcellulose) (HPC)
[12] = dose: 200.0 mg/kg/injection, schedule: Q04DX003 (ip), vehicle: Klucel (hydroxypropylcellulose) (HPC)
[13] = dose: 400.0 mg/kg/injection, schedule: Q01DX009 (ip), vehicle: Klucel (hydroxypropylcellulose) (HPC)
[14] = dose: 400.0 mg/kg/injection, schedule: Q04DX003 (ip), vehicle: Klucel (hydroxypropylcellulose) (HPC)
[15] = dose: 100.0 mg/kg/injection, schedule: Q01DX001 (ip), vehicle: carboxymethylcellulose (CMC)
[16] = dose: 200.0 mg/kg/injection, schedule: Q01DX001 (ip), vehicle: carboxymethylcellulose (CMC)
[17] = dose: 400.0 mg/kg/injection, schedule: Q01DX001 (ip), vehicle: carboxymethylcellulose (CMC)
[18] = dose: 100.0 mg/kg/injection, schedule: Q01DX009 (ip), vehicle: saline with Tween-80
[19] = dose: 200.0 mg/kg/injection, schedule: Q01DX009 (ip), vehicle: saline with Tween-80
[20] = dose: 400.0 mg/kg/injection, schedule: Q01DX009 (ip), vehicle: saline with Tween-80

Measured: T/C

NCCCC(=O)O
inactive: [1] 99 % of control | dose: 100.0 mg/kg/injection, schedule: Q01DX009 (ip), vehicle: saline 100 % of control | [2] 103 % of control | [3] 105 % of control | [4] 90 % of control | [5] 98 % of control | [6] 101 % of control | [7] 94 % of control | [8] 101 % of control

COc1ccc(/C=C(\C#N)c2ccc(OC)cc2)cc1
inactive: [9] 96 % of control | [10] 98 % of control | [11] 101 % of control | [12] 91 % of control | [13] 96 % of control | [14] 93 % of control

CC(=O)Nc1nc[nH]c1C(N)=O
inactive: dose: 100.0 mg/kg/injection, schedule: Q01DX001 (ip), vehicle: saline with Tween-80 106 % of control | dose: 200.0 mg/kg/injection, schedule: Q01DX001 (ip), vehicle: saline with Tween-80 105 % of control | dose: 400.0 mg/kg/injection, schedule: Q01DX001 (ip), vehicle: saline with Tween-80 100 % of control

CC1CCCC(CN=Cc2cc(Cl)ccc2O)[N-]1.CC1CCCC(CN=Cc2cc(Cl)ccc2O)[N-]1.[Ni+2] (stereo unspecified)
inactive: dose: 100.0 mg/kg/injection, schedule: Q04DX003 (ip), vehicle: saline with Tween-80 96 % of control | dose: 200.0 mg/kg/injection, schedule: Q04DX003 (ip), vehicle: saline with Tween-80 90 % of control | dose: 400.0 mg/kg/injection, schedule: Q04DX003 (ip), vehicle: saline with Tween-80 91 % of control

CCCCCCOc1ccc(C(=N)N(CCCC)CCCC)c2ccccc12
inactive: dose: 5.0 mg/kg/injection, schedule: Q01DX001 (ip), vehicle: saline 97 % of control | dose: 10.0 mg/kg/injection, schedule: Q01DX001 (ip), vehicle: saline 97 % of control | dose: 20.0 mg/kg/injection, schedule: Q01DX001 (ip), vehicle: saline 89 % of control

CCOCCOCCCNCC(=O)N1CCN(C(=O)CNCCCOCCOCC)CC1
inactive: dose: 50.0 mg/kg/injection, schedule: Q01DX001 (ip), vehicle: carboxymethylcellulose (CMC) 97 % of control | [15] 98 % of control | [16] 108 % of control | [17] 103 % of control

CC(C)COC(=O)C1OC1(C)c1ccccc1 (stereo unspecified)
inactive: [18] 100 % of control | [19] 106 % of control | [20] 103 % of control

CC1(C)OC(N)=C(C(N)=O)C1c1ccc(Cl)cc1 (stereo unspecified)
inactive: [1] 97 % of control | [3] 95 % of control | [6] 95 % of control

CCOC(=O)c1cnc2c(cnn2C(C)C)c1NN
inactive: [10] 99 % of control | [12] 99 % of control | [14] 96 % of control

NC(=O)N/N=C/c1cc(=O)[nH]c(=O)[nH]1
inactive: [1] 88 % of control | [3] 97 % of control | [6] 97 % of control

CC(=O)[C@@]1(O)CC[C@H]2[C@@H]3C[C@H](C)C4=CC(=O)CC[C@]4(C)[C@H]3[C@@H](O)C[C@@]21C
inactive: dose: 12.5 mg/kg/injection, schedule: Q04DX002 (ip), vehicle: Klucel (hydroxypropylcellulose) (HPC) 102 % of control | dose: 25.0 mg/kg/injection, schedule: Q04DX002 (ip), vehicle: Klucel (hydroxypropylcellulose) (HPC) 105 % of control | dose: 50.0 mg/kg/injection, schedule: Q04DX002 (ip), vehicle: Klucel (hydroxypropylcellulose) (HPC) 112 % of control | [1] 104 % of control | dose: 100.0 mg/kg/injection, schedule: Q01DX009 (ip), vehicle: acetone 97 % of control | [2] 104 % of control | [3] 100 % of control | dose: 200.0 mg/kg/injection, schedule: Q01DX009 (ip), vehicle: acetone 92 % of control | [5] 102 % of control | [6] 91 % of control | dose: 400.0 mg/kg/injection, schedule: Q01DX009 (ip), vehicle: acetone 97 % of control | [8] 95 % of control

Cc1n(Cc2ccccc2)cc[n+]1C
inactive: dose: 12.5 mg/kg/injection, schedule: Q01DX009 (ip), vehicle: saline 109 % of control and 119 % of control | dose: 12.5 mg/kg/injection, schedule: Q04DX002 (ip), vehicle: saline 100 % of control and 111 % of control | dose: 25.0 mg/kg/injection, schedule: Q01DX009 (ip), vehicle: saline 117 % of control and 119 % of control | dose: 25.0 mg/kg/injection, schedule: Q04DX002 (ip), vehicle: saline 100 % of control | dose: 50.0 mg/kg/injection, schedule: Q01DX009 (ip), vehicle: saline 93 % of control

O=C1CCCN1C(=O)C1CC1
inactive: dose: 100.0 mg/kg/injection, schedule: Q01DX001 (ip), vehicle: saline sonified 96 % of control | [18] 91 % of control | dose: 200.0 mg/kg/injection, schedule: Q01DX001 (ip), vehicle: saline sonified 109 % of control | [19] 87 % of control | dose: 400.0 mg/kg/injection, schedule: Q01DX001 (ip), vehicle: saline sonified 106 % of control | [20] 92 % of control

C[N+](C)(C)CSc1ccccc1-n1cccc1
inactive: dose: 12.5 mg/kg/injection, schedule: Q01DX009 (ip), vehicle: Klucel (hydroxypropylcellulose) (HPC) 112 % of control | dose: 12.5 mg/kg/injection, schedule: Q04DX003 (ip), vehicle: Klucel (hydroxypropylcellulose) (HPC) 103 % of control | dose: 25.0 mg/kg/injection, schedule: Q01DX009 (ip), vehicle: Klucel (hydroxypropylcellulose) (HPC) 103 % of control | dose: 25.0 mg/kg/injection, schedule: Q04DX003 (ip), vehicle: Klucel (hydroxypropylcellulose) (HPC) 92 % of control | dose: 50.0 mg/kg/injection, schedule: Q01DX009 (ip), vehicle: Klucel (hydroxypropylcellulose) (HPC) 110 % of control | dose: 50.0 mg/kg/injection, schedule: Q04DX003 (ip), vehicle: Klucel (hydroxypropylcellulose) (HPC) 97 % of control

Cc1cc(N=[N+]([O-])c2ccc(N)c(C)c2)ccc1N
inactive: [1] 95 % of control | [3] 91 % of control | [4] 96 % of control | [6] 93 % of control | [7] 96 % of control

CCOC(=O)N(c1ccccc1)c1ccccc1
inactive: dose: 100.0 mg/kg/injection, schedule: Q04DX002 (ip), vehicle: Klucel (hydroxypropylcellulose) (HPC) 106 % of control | dose: 200.0 mg/kg/injection, schedule: Q04DX002 (ip), vehicle: Klucel (hydroxypropylcellulose) (HPC) 106 % of control | dose: 400.0 mg/kg/injection, schedule: Q04DX002 (ip), vehicle: Klucel (hydroxypropylcellulose) (HPC) 98 % of control

COc1ccc2ccccc2c1Br
inactive: [15] 98 % of control | [16] 98 % of control | [17] 98 % of control

CN1CCN(C(=O)Nc2ccc(N=Nc3ccccc3)cc2)CC1
inactive: [12] 87 % of control

CC(=O)OC1C=CCC2C(=O)c3cc4ccccc4cc3C(=O)C12 (stereo unspecified)
inactive: dose: 100.0 mg/kg/injection, schedule: Q01DX001 (ip), vehicle: other 100 % of control | dose: 200.0 mg/kg/injection, schedule: Q01DX001 (ip), vehicle: other 104 % of control

COC(=O)c1ccccc1N=Nc1cc(C)c(C)cc1O
inactive: [9] 88 % of control | [11] 88 % of control | [13] 91 % of control

CC1C2CC3OC(=O)C1(C)C3C2 (stereo unspecified)
inactive: [1] 92 % of control | [3] 98 % of control | [6] 96 % of control

O=C1CC2CCCC(C1)N2Cc1ccccc1
inactive: [1] 92 % of control | [3] 97 % of control | [6] 101 % of control

COc1ccc(OC2CCCCC2OS(C)(=O)=O)cc1 (stereo unspecified)
inactive: dose: 100.0 mg/kg/injection, schedule: Q01DX001 (ip), vehicle: Klucel (hydroxypropylcellulose) (HPC) 104 % of control | [9] 96 % of control | [10] 102 % of control | dose: 200.0 mg/kg/injection, schedule: Q01DX001 (ip), vehicle: Klucel (hydroxypropylcellulose) (HPC) 103 % of control | [11] 104 % of control | [12] 102 % of control | dose: 400.0 mg/kg/injection, schedule: Q01DX001 (ip), vehicle: Klucel (hydroxypropylcellulose) (HPC) 108 % of control | [13] 106 % of control | [14] 101 % of control
